Experimental data: patent publication US7754896B2, “Indol-alanine derivatives as selective S1P4-agonists” (Novartis AG, priority 2004, dated 2010)

Target: T1, S1P4 (Homo sapiens, UniProt O95977)
T1 construct: expressed in transfected cells
T1 sequence (O95977 1-384): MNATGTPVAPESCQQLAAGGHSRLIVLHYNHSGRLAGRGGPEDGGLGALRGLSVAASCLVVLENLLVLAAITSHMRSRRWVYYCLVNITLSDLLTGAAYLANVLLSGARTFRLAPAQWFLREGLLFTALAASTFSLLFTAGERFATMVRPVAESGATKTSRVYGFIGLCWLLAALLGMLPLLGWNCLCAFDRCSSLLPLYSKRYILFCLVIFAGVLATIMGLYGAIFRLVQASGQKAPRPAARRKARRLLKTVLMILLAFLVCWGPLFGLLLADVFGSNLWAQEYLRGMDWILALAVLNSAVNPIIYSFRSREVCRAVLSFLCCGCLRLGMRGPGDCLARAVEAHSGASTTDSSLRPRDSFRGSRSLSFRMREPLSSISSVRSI
Experiment: Calcium mobilization assay, CHO cells expressing S1P4
Assay type: cell-based
Protocol: An expression vector for the human S1P4 gene (HSEDG4; GenBank Accession Number AJ000479) fused to the c-myc peptide tag at the C-terminus is obtained as described in Van Brocklyn et al. 2000, Blood 95(8), 2624. The encoding DNA for the S1P4-myc fusion protein is cloned in the mammalian expression vector pRc/CMV (Invitrogen), which confers G418 resistance for the selection of stable mammalian cells. The DNA sequence of the S1P4 insert is determined on both strands. […] The S1P4-myc cDNA is inserted into the pRc/CMV vector using HindIII/XbaI.
To develop stable cell lines expressing the c-myc tagged S1P4 receptor 5 μg of plasmid pRc/CMV myc-S1P4 is cut using restriction endonuclease PvuI, which cleaves the plasmid once. The linearized plasmid is then precipitated using a final concentration of 0.3M sodium acetate, pH5.0 and 66% ethanol. […] Individual clones that grew after the sort and selection procedure are expanded and one clone is finally selected based on the level of S1P4 mRNA expression determined by TaqMan quantitative PCR analysis.
CHO cells are plated in black Costar plate (96 or 384 well, 50,000 cells or 12,500 cells, respectively) in a MEM with FCS and cultured for 20-24 h at 37° C. in a CO2 incubator. […] After measuring the baseline for 40 sec, the agonist in HBSS is added and the fluorescence is measured at intervals of 2 sec for 3 to 5 min. […]

In the case of `NC(CNC(=O)c1cc2c(-c3ccccc3Cc3ccccc3)cccc2[nH]1)C(=O)O` (stereo not shown) [Example 2], the EC50 is reported as 10 nM.
